No end group written: not given here.
Key:
[1] = tested on: neutrophils; assay: Transwell chemotaxis assay; assay type: cell-based, human
Protocol: The cells migration after IL-17 (10-500 ng/ml), FM-0410 (10-500 ng/ml) or N-Formylmethionine-leucyl-phenylalanine (fmlp; 10^−6 M) treatment was quantified using CountBright™ Absolute Counting Beads. Data were presented as means±S.D. of n=3 healthy donors. Statistical analysis was conducted by one-way ANOVA followed by Bonferroni's for multiple comparisons. ^#P≤0.05, ^##P≤0.01, ^###P≤0.001, ^####P≤0.0001 vs Ctrl group; ^+P≤0.05 vs IL-17. Neutrophil isolation: Blood was taken according to local research ethics committee approval (QMERC2014/61). Informed consent was provided according to the Declaration of Helsinki. All blood samples were collected on the day of experiments from healthy donors and immediately used. Each condition has 3 biological replicates (3 different donors). Neutrophils were isolated using a double density histopaque gradient and hypotonic lysis as described previously. Transwell chemotaxis assay: Chemotaxis was assessed using a transwell assay. […] After 2 hours at 37° C., neutrophils were collected from the bottom wells and quantified by flow cytometry using CountBright™ Absolute Counting Beads (Thermofisher, Rugby, UK) as previously described.

[2] = tested on: Human dermal blood endothelial cells (HDBEC); assay: HDBEC stimulation (flow cytometry, IL-6 Elisa); assay type: cell-based; details: 24 h
Protocol: (§1) FIG. 10: Human dermal blood endothelial cells (HDBEC) were treated with: IL-17 vehicle (Ctrl), IL-17 or FM-0410 (100 ng/ml), alone or in combination with TNF-α (100 U/ml) for 24 h. Cells were washed, gated in their totality and singlet before the identification of IL-17Rs (RA and RC) (A, B), ICAM (C) and VCAM (D) expression. Histogram values (expressed as MIF) indicate the total positive cells (A-D). In (E) are shown phase-contrast micrographs of confluent monolayers of untreated or treated (as reported before) HDBEC. Total adhesion (expressed as INT/mm^2, F) and % of transmigration (G) are calculated with Image Pro programme (DataCell, Finchampstead). Inflammatory supernatants from all experimental conditions were assayed by Elisa for IL-6 (H) expressed in pg/ml. Data were presented as means±S.D. of n=3 healthy donors. Statistical analysis was conducted by one-way ANOVA followed by Bonferroni's for multiple comparisons. ^#P≤0.05, ^##P≤0.01, ^###P≤0.001, ^####P≤0.0001 vs Ctrl group; *P≤0.05 vs TNF-α+IL-17 group; ^∘P≤0.05, ^∘∘∘P≤0.001, ^∘∘∘∘P≤0.0001 vs TNF-α group.
Human dermal blood endothelial cells (HDBEC): Primary human dermal blood endothelial cells (HDBECs) were purchased from PromoCell and cultured in the manufacturer's recommended endothelial cell growth medium MV (PromoCell, Heidelberg, Germany). HDBECs were seeded onto 12-well tissue culture plates after 4 passages at a seeding density yielding confluent monolayers. HDBEC monolayers were washed in endothelial cell growth medium MV warmed to 37° C. and stimulated with IL-17 or FM-0410 (100 ng/ml) alone or in a combination with TNF-α (100 U/ml) for 24 h at 37° C. Cells were stimulated for 24 h, before staining with IL-17Rs (RA or RC) or ICAM/VCAM adhesion receptors using a Flow cytometry assay. Supernatants were collected and measured to evaluate IL-6 or TNF-α levels.
Flow Cytometry: HDBEC, collected after 24 h of treatment, were washed with PBS without Ca^2+ and Mg^2+ containing 25 mM lactose for 20 min at room temperature with occasional mixing. Cells were, then, incubated with FcR blocking agents (Miltenyi) in PBS without Ca^2+ and Mg^2+ containing lactose before staining cells with antibodies IL-17 Receptor A (1:100; clone 133617) and IL-17 Receptor C (1:100; clone 309822). Moreover, HDBEC cells were also stained with ICAM (BBIG-V3; 1:50, APC, BD Biosciences) and VCAM (3E2; 1:50, FITC, BD Biosciences). Protein expression was analysed by flow cytometry on a Dako CyAn (Beckman Coulter, High Wycombe, U.K.), and data were analysed using MRFIow and FlowJo software operation. The unspecific binding of antibodies was quantified by using corresponding isotype controls.
Elisa assay: The levels of IL-6 at 24 h were measured using commercially available enzyme-linked immunosorbent assay kits (ELISA kit, R&D System, Milan, Italy) according to the manufacturer's instructions. Briefly, 100 μl of supernatants, diluted standards, quality controls, and dilution buffer (blank) were applied on a plate with the monoclonal antibody for 2 h. After washing, 100 μl of biotin-labeled antibody was added and incubation continued for 1 h. […] The addition of 100 μl of the substrate and stop solution represented the last steps before the reading of absorbance (measured at 450 nm) on a microplate reader. Antigen levels in the samples were determined using a standard curve and expressed as pg/ml.

[3] = tested on: hPBMC on cytokine-stimulated HDBEC monolayers; assay: Human PBMC static adhesion / transendothelial migration assay; assay type: cell-based; details: co-treatment plus TNF-α
Protocol: as §1, with “Statistical analysis was conducted by one-way ANOVA followed by Bonferroni's for multiple comparisons. ^#P≤0.05, ^##P≤0.01, ^###P≤0.001, ^####P≤0.0001 vs Ctrl group; *P≤0.05 vs TNF-α+IL-17 group; ^∘P≤0.05, ^∘∘∘P≤0.001, ^∘∘∘∘P≤0.0001 vs TNF-α group.” left out
Human PBMC transendothelial migration assay: Prior to beginning the assay, HDBEC monolayers were washed with 37° C. medium 199 (Thermo Fisher Scientific) supplemented with 0.15% w/v BSA (MilliporeSigma) to remove any residual cytokines. hPBMC (1×10^6) were co-cultured with cytokine-stimulated HDBEC monolayers at 37° C. for 20 min. […] Total hPBMC adhesion and mean percentage transmigration were calculated for each well.

[4] = 100 ng/ml in combination with TNF-α (100 U/ml)

Q: Which “chemotactic activity compared to positive control fmlp (10^−6 M)” value ([1]; 500 ng/ml) does the source give for Ac-LEKILVSVGATAVTPIVHHVAC [FM-0410] here?
A: The value was “almost similar to positive control fmlp”.

Q: What about the “chemotactic effect on neutrophils” value ([1]; 10-500 ng/ml, vs Control group) of the same substance?
A: Its value is “concentration-dependent chemotactic effect”.

Q: What about the ICAM expression [2, 4] of the same substance?
A: Its ICAM expression is “upregulation”.

Q: And the IL-17RA receptor expression [2, 4]?
A: The IL-17RA receptor expression was “No effects”.

Q: What about the IL-17RC receptor expression [2, 4] of the same substance?
A: Its IL-17RC receptor expression is “No effects”.

Q: And the VCAM expression [2, 4]?
A: The VCAM expression was “upregulation”.

Q: And the “IL-6 levels (marker of cell activation)” value ([2]; peptide co-stimulation with TNF-α)?
A: Its value is “upregulation”.

Q: And the “total number of adhered hPBMC” value [3]?
A: Its value is “significant increase”.

Q: And the “transmigrated hPBMC” value [3]?
A: The value was “significant increase”.

Reference: US20260035452A1 (THE UNIVERSITY OF BIRMINGHAM, priority 2022, published 2026)
